According to PubChem BioAssay AID1982 (Sanford-Burnham Center for Chemical Genomics, 2009):
Activity calls are given as the source filed them. The rule behind the calls is not given here.

Assays:
Experiment in all cases: kinase panel binding selectivity, selectivity assay, biochemical, KINOMEscan (AID 1982)
AAK1 = conditions: KINOMEscan 353-kinase binding panel, qPCR, at 10 µM, active compounds read low
ERK3 = conditions: KINOMEscan 353-kinase binding panel, qPCR, at 10 µM, active compounds read low
[1] = molecular target: Calcium/calmodulin-dependent protein kinase type II subunit delta (Homo sapiens) (UniProt Q13557); conditions: KINOMEscan 353-kinase binding panel, qPCR; CAMK2D; at 10 µM; active compounds read low
Chain of Calcium/calmodulin-dependent protein kinase type II subunit delta (Homo sapiens) (Q13557 whole entry, looked up): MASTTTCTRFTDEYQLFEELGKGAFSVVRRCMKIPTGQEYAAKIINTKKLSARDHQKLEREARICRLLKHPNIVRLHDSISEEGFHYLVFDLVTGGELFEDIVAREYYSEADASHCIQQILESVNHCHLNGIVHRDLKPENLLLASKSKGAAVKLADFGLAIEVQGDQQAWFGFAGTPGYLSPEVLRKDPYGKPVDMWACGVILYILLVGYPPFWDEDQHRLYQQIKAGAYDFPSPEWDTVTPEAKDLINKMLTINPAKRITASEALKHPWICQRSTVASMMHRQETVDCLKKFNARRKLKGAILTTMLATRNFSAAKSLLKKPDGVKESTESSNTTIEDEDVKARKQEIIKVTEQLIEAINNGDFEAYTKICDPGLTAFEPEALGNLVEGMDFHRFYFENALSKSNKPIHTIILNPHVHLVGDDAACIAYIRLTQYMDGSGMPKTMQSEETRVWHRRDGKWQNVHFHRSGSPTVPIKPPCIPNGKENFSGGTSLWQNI

[2] = molecular target: Epidermal growth factor receptor (Homo sapiens) (UniProt P00533); conditions: KINOMEscan 353-kinase binding panel, qPCR, at 10 µM, active compounds read low
Chain of Epidermal growth factor receptor (Homo sapiens) (P00533 whole entry, looked up): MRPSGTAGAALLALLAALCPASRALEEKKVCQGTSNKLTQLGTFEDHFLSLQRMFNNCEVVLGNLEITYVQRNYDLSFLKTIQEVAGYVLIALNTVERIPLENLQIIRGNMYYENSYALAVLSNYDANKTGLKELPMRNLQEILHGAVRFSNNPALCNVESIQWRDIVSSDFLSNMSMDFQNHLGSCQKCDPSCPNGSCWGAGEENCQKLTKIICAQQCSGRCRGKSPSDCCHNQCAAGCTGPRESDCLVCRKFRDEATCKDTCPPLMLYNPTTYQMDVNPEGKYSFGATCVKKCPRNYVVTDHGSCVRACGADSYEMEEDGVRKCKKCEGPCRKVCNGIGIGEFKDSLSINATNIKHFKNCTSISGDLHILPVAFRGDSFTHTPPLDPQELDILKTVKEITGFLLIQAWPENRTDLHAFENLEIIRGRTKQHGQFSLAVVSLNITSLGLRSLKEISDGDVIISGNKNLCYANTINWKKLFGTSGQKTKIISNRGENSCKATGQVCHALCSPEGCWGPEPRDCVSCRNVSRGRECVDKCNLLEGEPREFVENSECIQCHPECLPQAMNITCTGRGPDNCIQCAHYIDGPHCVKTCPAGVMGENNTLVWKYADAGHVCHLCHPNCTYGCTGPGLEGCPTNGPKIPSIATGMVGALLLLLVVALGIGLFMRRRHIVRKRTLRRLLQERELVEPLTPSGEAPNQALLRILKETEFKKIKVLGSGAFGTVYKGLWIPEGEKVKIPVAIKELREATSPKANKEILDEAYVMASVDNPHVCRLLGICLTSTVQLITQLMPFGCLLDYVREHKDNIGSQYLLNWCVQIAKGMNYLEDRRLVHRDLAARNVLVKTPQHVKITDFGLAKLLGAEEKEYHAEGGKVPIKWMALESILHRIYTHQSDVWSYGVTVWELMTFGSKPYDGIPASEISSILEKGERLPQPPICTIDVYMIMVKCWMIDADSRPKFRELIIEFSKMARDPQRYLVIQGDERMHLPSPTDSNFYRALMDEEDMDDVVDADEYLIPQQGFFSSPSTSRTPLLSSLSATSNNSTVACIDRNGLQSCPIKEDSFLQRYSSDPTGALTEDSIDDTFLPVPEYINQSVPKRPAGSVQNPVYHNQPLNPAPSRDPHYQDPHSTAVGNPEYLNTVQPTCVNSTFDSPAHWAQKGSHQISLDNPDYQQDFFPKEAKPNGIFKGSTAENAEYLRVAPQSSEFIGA

[3] = molecular target: Tyrosine-protein kinase Fes/Fps (Homo sapiens) (UniProt P07332); conditions: KINOMEscan 353-kinase binding panel, qPCR, at 10 µM, active compounds read low
PRKCH = conditions: KINOMEscan 353-kinase binding panel, qPCR, at 10 µM, active compounds read low
EPHB3 = conditions: KINOMEscan 353-kinase binding panel, qPCR, at 10 µM, active compounds read low
FGR = conditions: KINOMEscan 353-kinase binding panel, qPCR, at 10 µM, active compounds read low
[4] = molecular target: Casein kinase II subunit alpha (Homo sapiens) (UniProt P68400); conditions: KINOMEscan 353-kinase binding panel, qPCR; CSNK2A1; at 10 µM; active compounds read low
Chain of Casein kinase II subunit alpha (Homo sapiens) (P68400 whole entry, looked up): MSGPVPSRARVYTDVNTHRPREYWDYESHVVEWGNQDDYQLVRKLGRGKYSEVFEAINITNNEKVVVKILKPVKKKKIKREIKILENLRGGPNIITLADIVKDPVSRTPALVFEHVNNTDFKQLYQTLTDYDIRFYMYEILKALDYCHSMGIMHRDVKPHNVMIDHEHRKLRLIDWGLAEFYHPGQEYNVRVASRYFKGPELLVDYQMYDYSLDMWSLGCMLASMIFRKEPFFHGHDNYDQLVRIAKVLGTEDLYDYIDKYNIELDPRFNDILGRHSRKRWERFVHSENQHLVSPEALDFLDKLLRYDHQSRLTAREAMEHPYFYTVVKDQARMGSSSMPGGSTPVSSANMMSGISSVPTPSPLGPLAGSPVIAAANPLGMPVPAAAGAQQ

DDR2 = conditions: KINOMEscan 353-kinase binding panel, qPCR, at 10 µM, active compounds read low
SNF1LK = conditions: KINOMEscan 353-kinase binding panel, qPCR, at 10 µM, active compounds read low
[5] = molecular target: Serine/threonine-protein kinase Chk1 (Homo sapiens) (UniProt O14757); conditions: KINOMEscan 353-kinase binding panel, qPCR; CHEK1; at 10 µM; active compounds read low
Chain of Serine/threonine-protein kinase Chk1 (Homo sapiens) (O14757 whole entry, looked up): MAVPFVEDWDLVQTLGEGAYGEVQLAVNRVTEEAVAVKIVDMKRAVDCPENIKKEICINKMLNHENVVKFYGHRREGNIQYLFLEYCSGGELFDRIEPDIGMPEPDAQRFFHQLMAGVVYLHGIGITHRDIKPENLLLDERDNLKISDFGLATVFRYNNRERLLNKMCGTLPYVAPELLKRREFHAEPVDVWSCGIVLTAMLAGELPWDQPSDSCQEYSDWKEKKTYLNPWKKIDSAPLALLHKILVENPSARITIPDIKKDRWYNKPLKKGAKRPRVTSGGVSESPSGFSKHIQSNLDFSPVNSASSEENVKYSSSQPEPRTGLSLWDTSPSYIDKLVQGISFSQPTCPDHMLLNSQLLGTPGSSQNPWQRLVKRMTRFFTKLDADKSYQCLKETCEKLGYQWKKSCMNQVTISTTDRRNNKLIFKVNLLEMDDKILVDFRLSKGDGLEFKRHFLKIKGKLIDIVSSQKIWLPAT

[6] = molecular target: Mitogen-activated protein kinase kinase kinase 10 (Homo sapiens) (UniProt Q02779); conditions: KINOMEscan 353-kinase binding panel, qPCR; MLK2; at 10 µM; active compounds read low
[7] = molecular target: Serine/threonine-protein kinase B-raf (Homo sapiens) (UniProt P15056); conditions: KINOMEscan 353-kinase binding panel, qPCR, at 10 µM, active compounds read low
Chain of Serine/threonine-protein kinase B-raf (Homo sapiens) (P15056 whole entry, looked up): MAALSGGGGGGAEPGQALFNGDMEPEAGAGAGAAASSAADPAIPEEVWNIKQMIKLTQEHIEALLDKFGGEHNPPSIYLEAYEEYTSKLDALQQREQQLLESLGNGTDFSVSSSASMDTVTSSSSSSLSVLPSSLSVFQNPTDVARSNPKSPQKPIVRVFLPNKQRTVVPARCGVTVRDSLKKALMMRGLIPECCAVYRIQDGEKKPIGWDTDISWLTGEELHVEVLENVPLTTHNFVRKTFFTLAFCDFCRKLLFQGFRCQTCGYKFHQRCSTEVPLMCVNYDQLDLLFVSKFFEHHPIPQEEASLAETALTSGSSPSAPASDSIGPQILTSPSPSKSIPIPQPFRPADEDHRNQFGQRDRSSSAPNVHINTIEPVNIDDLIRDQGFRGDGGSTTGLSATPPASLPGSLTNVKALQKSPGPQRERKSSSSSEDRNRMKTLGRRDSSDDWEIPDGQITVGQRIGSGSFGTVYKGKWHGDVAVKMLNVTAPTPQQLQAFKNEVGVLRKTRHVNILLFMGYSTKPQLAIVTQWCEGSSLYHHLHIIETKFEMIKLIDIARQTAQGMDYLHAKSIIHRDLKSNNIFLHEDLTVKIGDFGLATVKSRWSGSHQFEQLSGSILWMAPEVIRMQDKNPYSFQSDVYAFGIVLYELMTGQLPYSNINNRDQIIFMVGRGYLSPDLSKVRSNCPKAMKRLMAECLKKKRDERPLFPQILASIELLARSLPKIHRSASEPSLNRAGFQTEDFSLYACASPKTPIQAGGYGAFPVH

[8] = molecular target: Serine/threonine-protein kinase PLK4 (Homo sapiens) (UniProt O00444); conditions: KINOMEscan 353-kinase binding panel, qPCR, at 10 µM, active compounds read low
[9] = molecular target: Inhibitor of nuclear factor kappa-B kinase subunit beta (Homo sapiens) (UniProt O14920); conditions: KINOMEscan 353-kinase binding panel, qPCR; IKK-beta; at 10 µM; active compounds read low
TNIK = conditions: KINOMEscan 353-kinase binding panel, qPCR, at 10 µM, active compounds read low
[10] = molecular target: Tyrosine-protein kinase Fer (Homo sapiens) (UniProt P16591); conditions: KINOMEscan 353-kinase binding panel, qPCR, at 10 µM, active compounds read low
MLK3 = conditions: KINOMEscan 353-kinase binding panel, qPCR, at 10 µM, active compounds read low
[11] = molecular target: Casein kinase I isoform gamma-1 (Homo sapiens) (UniProt Q9HCP0); conditions: KINOMEscan 353-kinase binding panel, qPCR; CSNK1G1; at 10 µM; active compounds read low
Chain of Casein kinase I isoform gamma-1 (Homo sapiens) (Q9HCP0 whole entry, looked up, canonical isoform): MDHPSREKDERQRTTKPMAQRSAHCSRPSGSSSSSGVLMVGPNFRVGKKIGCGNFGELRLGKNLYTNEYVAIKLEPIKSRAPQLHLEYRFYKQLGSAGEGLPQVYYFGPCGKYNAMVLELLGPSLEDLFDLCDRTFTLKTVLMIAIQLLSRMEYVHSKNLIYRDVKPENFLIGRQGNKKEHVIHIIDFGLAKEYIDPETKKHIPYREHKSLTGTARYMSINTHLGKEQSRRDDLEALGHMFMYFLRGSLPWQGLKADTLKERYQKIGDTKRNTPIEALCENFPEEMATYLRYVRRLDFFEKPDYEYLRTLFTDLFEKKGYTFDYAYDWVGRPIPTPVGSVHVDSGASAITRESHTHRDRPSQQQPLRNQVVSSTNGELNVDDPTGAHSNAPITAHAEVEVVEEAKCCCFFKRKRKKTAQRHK

CDC2L2 = conditions: KINOMEscan 353-kinase binding panel, qPCR, at 10 µM, active compounds read low
[12] = molecular target: Serine/threonine-protein kinase PAK 1 (Homo sapiens) (UniProt Q13153); conditions: KINOMEscan 353-kinase binding panel, qPCR; PAK1; at 10 µM; active compounds read low
MKNK1 = conditions: KINOMEscan 353-kinase binding panel, qPCR, at 10 µM, active compounds read low
[13] = molecular target: 3-phosphoinositide-dependent protein kinase 1 (Homo sapiens) (UniProt O15530); conditions: KINOMEscan 353-kinase binding panel, qPCR; PDPK1; at 10 µM; active compounds read low
[14] = molecular target: MAP kinase-interacting serine/threonine-protein kinase 2 (Homo sapiens) (UniProt Q9HBH9); conditions: KINOMEscan 353-kinase binding panel, qPCR; MKNK2; at 10 µM; active compounds read low
[15] = molecular target: Dual specificity protein kinase CLK2 (Homo sapiens) (UniProt P49760); conditions: KINOMEscan 353-kinase binding panel, qPCR, at 10 µM, active compounds read low
Chain of Dual specificity protein kinase CLK2 (Homo sapiens) (P49760 whole entry, looked up): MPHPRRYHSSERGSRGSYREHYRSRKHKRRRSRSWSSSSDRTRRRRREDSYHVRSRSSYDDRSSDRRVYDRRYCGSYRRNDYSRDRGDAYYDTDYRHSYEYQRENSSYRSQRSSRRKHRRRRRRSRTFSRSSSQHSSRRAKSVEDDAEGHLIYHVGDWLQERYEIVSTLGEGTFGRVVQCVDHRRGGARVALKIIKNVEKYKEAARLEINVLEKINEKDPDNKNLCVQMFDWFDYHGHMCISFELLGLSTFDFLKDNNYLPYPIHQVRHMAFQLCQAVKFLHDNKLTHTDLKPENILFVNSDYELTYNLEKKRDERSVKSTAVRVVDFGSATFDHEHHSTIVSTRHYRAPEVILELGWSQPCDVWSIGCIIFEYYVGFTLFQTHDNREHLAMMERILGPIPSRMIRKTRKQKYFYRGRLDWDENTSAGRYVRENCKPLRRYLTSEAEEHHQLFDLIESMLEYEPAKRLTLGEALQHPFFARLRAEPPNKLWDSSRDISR

[16] = molecular target: Serine/threonine-protein kinase N2 (Homo sapiens) (UniProt Q16513); conditions: KINOMEscan 353-kinase binding panel, qPCR; PKN2; at 10 µM; active compounds read low
[17] = molecular target: Aurora kinase B (Homo sapiens) (UniProt Q96GD4); conditions: KINOMEscan 353-kinase binding panel, qPCR; AURKB; at 10 µM; active compounds read low
Chain of Aurora kinase B (Homo sapiens) (Q96GD4 whole entry, looked up): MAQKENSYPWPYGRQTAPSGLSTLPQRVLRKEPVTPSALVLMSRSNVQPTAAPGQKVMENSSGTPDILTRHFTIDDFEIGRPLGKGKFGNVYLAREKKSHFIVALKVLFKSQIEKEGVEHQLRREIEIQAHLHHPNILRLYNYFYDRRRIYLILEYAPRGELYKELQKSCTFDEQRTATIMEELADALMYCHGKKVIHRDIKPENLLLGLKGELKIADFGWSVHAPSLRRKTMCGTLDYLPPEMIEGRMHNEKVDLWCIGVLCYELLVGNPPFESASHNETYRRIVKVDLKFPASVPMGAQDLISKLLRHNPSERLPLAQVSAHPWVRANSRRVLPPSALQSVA

ANKK1 = conditions: KINOMEscan 353-kinase binding panel, qPCR, at 10 µM, active compounds read low
[18] = molecular target: Mitogen-activated protein kinase 14 (Homo sapiens) (UniProt Q16539); conditions: KINOMEscan 353-kinase binding panel, qPCR; p38-alpha; at 10 µM; active compounds read low
Chain of Mitogen-activated protein kinase 14 (Homo sapiens) (Q16539 whole entry, looked up): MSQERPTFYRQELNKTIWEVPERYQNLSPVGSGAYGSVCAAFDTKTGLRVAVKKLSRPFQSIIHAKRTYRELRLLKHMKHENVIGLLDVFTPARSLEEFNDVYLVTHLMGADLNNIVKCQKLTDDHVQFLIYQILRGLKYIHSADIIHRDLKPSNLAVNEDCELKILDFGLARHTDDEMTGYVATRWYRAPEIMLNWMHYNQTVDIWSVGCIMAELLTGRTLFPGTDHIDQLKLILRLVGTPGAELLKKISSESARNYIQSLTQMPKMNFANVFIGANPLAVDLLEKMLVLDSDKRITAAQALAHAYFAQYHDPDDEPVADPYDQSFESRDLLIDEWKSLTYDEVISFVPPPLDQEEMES

EPHB4 = conditions: KINOMEscan 353-kinase binding panel, qPCR, at 10 µM, active compounds read low

Measured: percent of control binding

Cc1cc2nc(NCCCO)n(CC(=O)c3cc(C(C)(C)C)c(O)c(C(C)(C)C)c3)c2cc1C
inactive: AAK1 100% | ERK3 86% | [1] 89% | [2]; EGFR(E746-A750del) 100% | [2]; EGFR(G719C) 89% | [2]; EGFR(G719S) 100% | [2]; EGFR(L747-E749del, A750P) 87% | [2]; EGFR(L747-S752del, P753S) 100% | [2]; EGFR(L747-T751del,Sins) 97% | [2]; EGFR(L858R) 77% | [2]; EGFR(L861Q) 59% | [2]; EGFR(S752-I759del) 100% | [2]; EGFR 86% | [3] 99% | PRKCH 100% | EPHB3 86% | FGR 100% | [4] 81% | DDR2 65% | SNF1LK 100% | [5] 100% | [6] 100% | [7]; BRAF(V600E) 70% | [7]; BRAF 88% | [8] 91% | [9] 78% | TNIK 100% | [10] 100% | MLK3 99% | [11] 91% | CDC2L2 100% | [12] 67% | MKNK1 75% | [13] 95% | [14] 81% | [15] 80% | [16] 100% | [17] 100% | ANKK1 100% | [18] 96% | EPHB4 98%
